Patent US11304935B2 (UNIVERSITY OF SOUTH CHINA, priority 2018, dated 2022)

Test system: pentylenetetrazole-induced epilepsy
Assay: Pentylenetetrazole-induced epilepsy model mice
Assay type: in vivo, C57BL/6 mice
Conditions: I-BRD9 10, 15, 20 mg/kg i.p. or s.c. 1 h before 45 mg/kg pentylenetetrazole i.p., compared with epilepsy model group
Source text: In the present disclosure, the animals are all 8-week-old healthy male C57BL/6 mice, weighing 22-24 grams, all purchased from Hunan SJD laboratory animal Co. LTD., license number: SCXK (Xiang) 2016-0002. C57BL/6 mice in different groups were all feed in an artificial day and night 12-hour circular lighting environment (7:00 AM-7:00 PM). The mice in the groups and were kept in cages, 4-6 mice per cage. In the cages, the mice had free access to food and water; and the daily food and water were changed regularly
Animals in each group were administered with corresponding dosage of drugs or vehicle by intraperitoneal or subcutaneous injection. 1 h later, 45 mg/kg of pentylenetetrazole was intraperitoneally injected. The behaviors and conditions of the animals were observed. Later, changes of mice behaviors were closely observed through video monitoring system for 1 h, and seizure level was evaluated by Racine grading standard. The incubation period (started after the completion the administration of pentylenetetrazole, and ended by the first time muscle spasm occurred), seizure level (subjected to the highest level) and duration period of the seizure were recorded.
Seizure level of mice were referred to a modified Racine scale:
I stage: rhythmical mouth, ears and facial twitch and spasm;
II stage: nodding and more serious facial twitch and spasm;
III stage: clonus of forelimb occurs, without up-right;
IV stage: rearing with forelimb clonus;
V stage: stiffness clonus occurs in the whole body, and falling.

**Q.** For `CCn1cc(-c2cccc(C(F)(F)F)c2)c2sc(C(=N)NC3CCS(=O)(=O)CC3)cc2c1=O` [I-BRD9], which “seizure level (modified Racine scale)” value (FIG. 1) is on record?
**A.** The value was “obviously reduced seizure level”.

**Q.** And the epilepsy susceptibility (FIG. 2)?
**A.** The epilepsy susceptibility was “reduced epilepsy susceptibility”.

**Q.** What about the “incubation period (onset time of epilepsy)” value (FIG. 3) of the same compound?
**A.** Its value is “postpone the onset time of epilepsy”.
